Measurements taken from the supplement of paper PMC3974653.
Counter-ions that a name gives are not always drawn.

Tested on: MTT (mouse pheochromocytoma)
Assay: IC50 of cell viability (ATP content)
Details: (24 or 48 h)
Outline: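 Each well of a white 1536-well plate received 5 µl of MTT mouse pheochromocytoma cells at 200,000 cells/ml in DMEM containing 5% FBS and 1% horse serum. After overnight culture at 37°C, 5% CO2, cells were exposed for 24 or 48 hrs to 23 nl of library compound in DMSO, pinned at 8 final concentrations from 0.5 nM to 46 µM. CellTiter-Glo luminescence was read after 15 minutes, and IC50 was obtained from a four-parameter logistic fit of signals normalised to positive-control and DMSO wells.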

IC50 of cell viability [µM] | Compound
> 46 | CCCC(=O)Nc1ncnc2c1ncn2C1OC2COP(=O)(O)OC2C1OC(=O)CCC (centres undefined) [BUCLADESINE]
> 46 | CCCCNC(=N)NC(=N)N [BUFORMIN HYDROCHLORIDE]
> 46 | CCCCN1CCCC1C(=O)Nc1c(C)cc(C)cc1C (centres undefined) [BUMECAINUM]
> 46 | CCCC(=O)N1CCCN(c2nc(N)c3cc(OC)c(OC)cc3n2)CC1 [BUNAZOSIN HYDROCHLORIDE]
> 46 | CCOC(=O)c1cnc2cc(OCC(C)C)c(OCC(C)C)cc2c1O [BUQUINOLATE]
> 46 | CCCCOC(=O)c1ccc(N)cc1 [BUTAMBEN]
> 46 | CCC(C(=O)OCCN(CC)CC)c1ccccc1 (centres undefined) [BUTETAMATUM]
> 46 | CCOC(=O)O[C@@H](C)OC(=O)[C@@H]1[N@]2[C@@H](SC1(C)C)[C@H](NC(=O)[C@@H](N)C3=CC=CC=C3)C2=O [Bacampicillin hydrochloride]
> 46 | CC[C@H](C)[C@H](N)\C1=N\[C@@H](CS1)C(=O)N[C@@H](CC(C)C)C(=O)N[C@@H](CCC(O)=O)C(=O)N[C@H]([C@@H](C)CC)C(=O)N[C@@H]2CCCCNC(=O)[C@@H](CC(N)=O)NC(=O)[C@@H](CC(O)=O)NC(=O)[C@@H](CC3=CN=C[NH]3)NC(=O)[C@@H](CC4=CC=CC=C4)NC(=O)[C@H](NC(=O)[C@@H](CCCN)NC2=O)[C@@H](C)CC [Bacitracin]
> 46 | COC(=O)C1=C(C)NC(C)=C(C(=O)O[C@H]2CCN(Cc3ccccc3)C2)C1c1cccc([N+](=O)[O-])c1 (some centres undefined) [Barnidipine]
> 46 | Cc1c(-c2ccc(O)cc2)n(Cc2ccc(OCCN3CCCCCC3)cc2)c2ccc(O)cc12 [Bazedoxifene]
> 46 | C[C@H]1C[C@H]2[C@@H]3CCC4=CC(=O)C=C[C@]4(C)[C@@]3(Cl)[C@@H](O)C[C@]2(C)[C@@]1(O)C(=O)CO [Beclomethasone]
> 46 | N[S+](=O)([O-])c1cc2c(cc1C(F)(F)F)N[C@H](Cc1ccccc1)N[S+]2(=O)[O-] [Bendroflumethiazide]
> 46 | CC(NNC(=O)c1ccccc1)c1ccccc1 (centres undefined) [Benmoxin]
> 46 | N[C@@H](CO)C(=O)NNCc1ccc(O)c(O)c1O [Benserazide hydrochloride]
> 46 | O=C([O-])c1ccc(NC(=O)[C@H](Cc2ccc(O)cc2)NC(=O)c2ccccc2)cc1 [Bentiromide]

IC50 of cell viability [µM] | Compound
> 46 | O=C(NO)c1ccccc1 [Benzhydroxamic acid]
> 46 | O=C(Cn1ccnc1[N+](=O)[O-])NCc1ccccc1 [Benznidazol]
> 46 | CCOC(=O)c1ccc(N)cc1 [Benzocaine]
> 46 | CCCCNc1ccc(C(=O)OCCOCCOCCOCCOCCOCCOCCOCCOCCOC)cc1 [Benzonatate]
> 46 | O=C(c1ccccc1)c1ccccc1 [Benzophenone]
> 46 | O=C(OOC(=O)c1ccccc1)c1ccccc1 [Benzoyl peroxide]
> 46 | N[S+]([O-])(=O)C1=C(Cl)C=C2\N=C(\CSCC3=CC=CC=C3)N[S+]([O-])(=O)C2=C1 [Benzthiazide]
> 46 | OCc1ccccc1 [Benzyl alcohol]
> 46 | O=C(OCc1ccccc1)c1ccccc1 [Benzyl benzoate]
> 46 | Nc1ccc([S+](=O)([O-])NCc2ccccc2)cc1 [Benzylsulfamide]
> 46 | C[C@H]1C[C@H]2[C@@H]3CCC4=CC(=O)C=C[C@]4(C)[C@@]3(F)[C@@H](O)C[C@]2(C)[C@@]1(O)C(=O)CO [Betamethasone]
> 46 | C/N=C(\NCc1ccccc1)[NH2+]C.C/N=C(\NCc1ccccc1)[NH2+]C.O=S(=O)([O-])[O-] [Bethanidine Sulfate (2:1)]
> 46 | COc1ccc(CCNC[C@H](O)COc2cccc(C)c2)cc1OC [Bevantolol]
> 46 | [H][C@](C)(O)[C@@]1([H])C(=O)[N@]2C(C([O-])=O)=C(SC3CN4C=NC=[N+]4C3)[C@@]([H])(C)C12[H] (some centres undefined) [Biapenem]
> 46 | CNCCCCOc1ccccc1Cc1ccccc1 [Bifemelane]
> 46 | NCc1ccccc1Sc1ccccc1CO [Bipenamol hydrochloride]

Further lines, the compound ahead of its results:

Compound | IC50 of cell viability [µM]
COC1=CC2=C(C=C1OC)[C@@]34CCN5CC/6=C/COC7CC(=O)N2C3[C@H]7[C@@H]6C[C@H]45 (some centres undefined) [BRUCINE] | > 46
CCC/C=C/C=C/C(=O)OC1/C(=C/C(=O)OC)CC2CC(C(C)O)OC(=O)CC(O)CC3CC(OC(C)=O)C(C)(C)C(O)(CC4C/C(=C/C(=O)OC)CC(C=CC(C)(C)C1(O)O2)O4)O3 (centres undefined) [BRYOSTATIN-1] | > 46
CCCCC1C(=O)NC(=O)N(C2CCCCC2)C1=O (centres undefined) [BUCOLOME] | > 46
C[C@]12CC[C@H](O)C[C@H]1CCC1C2CC[C@]2(C)[C@@H](c3ccc(=O)oc3)C[C@H]3O[C@]132 (some centres undefined) [BUFOGENIN] | > 46
O=C1CC2(CCCC2)CC(=O)N1CCCCN1CCN(c2ncccn2)CC1 [BUSPIRONE] | > 46
CCCC[N+]1(C)C2CC(OC(=O)C(CO)c3ccccc3)CC1C1OC12 (centres undefined) [BUTYLSCOPOLAMMONIUM] | > 46
CN(C)C(=O)Oc1cc(OC(=O)N(C)C)cc([C@@H](O)CNC(C)(C)C)c1 [Bambuterol hydrochloride] | > 46
CCCCNCC(O)c1ccc(O)cc1 (centres undefined) [Bametano] | > 46
CCN(CCO)CCn1c(Cc2ccccc2)nc2c1c(=O)n(C)c(=O)n2C [Bamifylline Hydrochloride] | > 46
CCC1(CC)C(=O)NC(=O)NC1=O [Barbital] | > 46
CCC(=O)OCC(=O)C1(OC(=O)CC)C(C)CC2C3CCC/4=C/C(=O)/C=C\C4(C)C3(Cl)C(O)CC12C (centres undefined) [Beclazone] | > 46
O=C(c1cc2ccccc2o1)N1CCN(Cc2ccccc2)CC1 [Befuralina] | > 46
CCC1(C)CC(=O)NC(=O)C1 [Bemegride] | > 46
O=C(O)c1ccc(N[C@@H]2OC[C@@H](O)[C@@H](O)[C@@H]2O)cc1 [Benaxibine] | > 46
CC1=C(C\C2=N\CCN2)C3=C(S1)C=CC=C3.OC(=O)C(O)=O [Benazoline oxalate] | > 46
C/C(=C(/CCOP(=O)(O)O)SC(=O)c1ccccc1)N(C=O)Cc1cnc(C)nc1N [Benfotiamine] | > 46
CCCCOc1cc(C(=O)OCCN(CC)CC)ccc1N [Benoxinate hydrochloride] | > 46
O=C(CCCN1CCC(n2c(=O)[nH]c3ccccc32)CC1)c1ccc(F)cc1 [Benperidol] | > 46
O=Cc1ccccc1 [Benzaldehyde] | > 46

Compound | IC50 of cell viability [µM]
CN1[C@@H]2CC[C@H]1C[C@@H](OC(c1ccccc1)c1ccccc1)C2 [Benzatropina] | > 46
O=C1CCC(c2ccccc2)(C2CCN(Cc3ccccc3)CC2)C(=O)N1 (centres undefined) [Benzetimidum] | > 46
CCC1(c2ccccc2)C(=O)NC(=O)N(C(=O)c2ccccc2)C1=O (centres undefined) [Benzobarbital] | > 46
Cc1cc(Nc2ccccc2C(=O)O)ccc1Cl [Benzoic acid, 2-[(4-chloro-3-methylphenyl)amino]-] | > 46
O=C(c1ccccc1)C(O)c1ccccc1 (centres undefined) [Benzoin] | > 46
CN1[C@@H]2CC[C@H]1CC(OC(c1ccccc1)c1ccccc1)C2.C[S+](=O)([O-])O (some centres undefined) [Benztropine] | > 46
CN(C)CCCOc1nn(Cc2ccccc2)c2ccccc12 [Benzydamine hydrochloride] | > 46
N[S+](=O)([O-])c1cc2c(cc1Cl)N[C@H](Cc1ccccc1)N[S+]2(=O)[O-] [Benzylhydrochlorothiazide] | > 46
COc1c(O)cc2c(c1O)[C@H]1O[C@@H](CO)[C@@H](O)[C@@H](O)[C@@H]1OC2=O.O [Bergenin monohydrate] | > 46
CC(C)C[C@H](NC(=O)[C@@H](O)[C@H](N)Cc1ccccc1)C(=O)O.Cl [Bestatin hydrochloride] | > 46
CNCCc1ccccn1.C[S+](=O)([O-])O [Betahistine mesylate] | > 46
C[N+](C)(C)CC(=O)O [Betaine hydrochloride] | > 46
CCC(=O)OCC(=O)C1(OC(=O)CC)C(C)CC2C3CCC4=CC(=O)C=CC4(C)C3(F)C(O)CC21C (centres undefined) [Betamethasone dipropionate] | > 46
NCCc1cc[nH]n1 [Betazole hydrochloride] | > 46
CC(C)(Oc1ccc(CCNC(=O)c2ccc(Cl)cc2)cc1)C(=O)O [Bezafibrate] | > 46
O=C(COCCOCCOCC(=O)Nc1c(I)cc(I)c(C(=O)O)c1I)Nc1c(I)cc(I)c(C(=O)O)c1I [Biliscopin] | > 46
OC(CCN1CCCCC1)(c1ccccc1)C1CC2C=CC1C2 (centres undefined) [Biperiden] | > 46
CC(=O)Oc1ccc(C(c2ccc(OC(C)=O)cc2)c2ccccn2)cc1 [Bisacodyl] | > 46
